Reference: US12459914B2, “Compounds and compositions for the treatment of tumors” (FONDAZIONE ISTITUTO ITALIANO DI TECNOLOGIA, priority 2019, dated 2025)

Legend:
BRC4/RAD51 interaction = target: T1, BRC4/RAD51 interaction (Homo sapiens, UniProt Q06609); test: Competitive ELISA assay, disruption of BRC4/RAD51 interaction; assay type: binding; conditions: human Rad51, biotinylated BRC4 peptide
T1 construct: purchased Creative Biomart (Rad51); Life Technologies (BRC4 peptide)
T1 sequence (Q06609 1-339): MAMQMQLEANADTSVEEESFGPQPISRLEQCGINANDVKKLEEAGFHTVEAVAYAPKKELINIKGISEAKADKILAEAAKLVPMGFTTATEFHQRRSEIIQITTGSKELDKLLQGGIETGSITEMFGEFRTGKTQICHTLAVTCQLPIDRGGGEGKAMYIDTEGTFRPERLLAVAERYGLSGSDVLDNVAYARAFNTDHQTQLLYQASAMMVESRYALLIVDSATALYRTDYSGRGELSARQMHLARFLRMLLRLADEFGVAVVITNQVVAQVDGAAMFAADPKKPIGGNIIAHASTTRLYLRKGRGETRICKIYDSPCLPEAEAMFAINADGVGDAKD
Protocol: A competitive ELISA screening assay using biotinylated BRC4 peptide to disrupt the BRC4/RAD51 interaction was performed by modifying the method described by Rajendra et al. (Nucleic Acids Res. 38 (2010) 82-96). BRC4-biotinylated peptide (N-term Biotin[…] from Life Technologies) was used to coat 384-well plates (Nunc). After washing with PBS containing 0.05% Tween-20 (PBST), and blocking with the solution BSA 1%/PBST, overnight hybridization with human Rad51 protein (NP_002866 Creative Biomart, NY) was performed. Test compounds were added in dose-response from […] in triplicate with constant DMSO 1%. Antibody raised against Rad51 (Millipore) and HRP-secondary antibody staining to develop the 3,30,5,50-tetramethyllbenzidine signal (Sigma) quenched with 1M HCl was used as the assay readout. Colorimetric measure was read on Victor5 (PerkinElmer) plate Reader. BRC4 and Rad51 were included in the assay as positive control. Results were analyzed using GraphPad Software.

BxPC-3 cells = test: Cell viability assay (CellTiter Glo); assay type: cell-based; conditions: Homo sapiens, 72 h
Protocol: BxPC-3 cells were grown in RPMI 1640 containing 10% FBS, 100 U/ml penicillin/streptomycin, 2 mM glutamine. All media and supplements were from Sigma-Aldrich. Cultures were routinely tested for Mycoplasma contamination. Treatments (Olaparib and BRCA2-Rad51 disruptors) were administered in culture medium supplemented with 0.6% DMSO. The same amount of DMSO was added to the control, untreated cultures.
Cell viability was assessed by CellTiter Glo, Luminescent Cell Viability Assay. Briefly, BxPC-3 cells (1×10^4/well) were plated in white 96-well plates with clear bottom and treated for 72 h with olaparib (10 μM) or with the BRCA2-Rad51 disruptors, given alone or in combination. After treatments, the plate was allowed to equilibrate at room temperature for 30 min and the CellTiter-Glo reactive was directly added to each well. The plate was kept on a shaker for 2 min to induce cell lysis and its luminescence was measured by using a Fluoroskan Ascent FL reader (Labsystems) using manufacturer's instructions.

Structure (SMILES) | EC50 (BRC4/RAD51 interaction) | EC50 (BxPC-3 cells)
O=C(O)CCC(=O)N1N=C(c2c(-c3ccccc3)c3cc(Cl)ccc3[nH]c2=O)CC1c1ccc(Br)cc1 (stereo not drawn) [d.8, 4-[3-(4-bromophenyl)-5-(6-chloro-2-oxo-4-phenyl-1H-quinolin-3-yl)-3,4-dihydropyrazol-2-yl]-4-oxo-butanoic acid] | 16 µM | 48 µM
CC(=O)N1N=C(c2c(-c3ccccc3)c3cc(Cl)ccc3[nH]c2=O)CC1c1ccc(C(F)(F)F)cc1 (stereo not drawn) [d.15, 3-[2-acetyl-3-[4-(trifluoromethyl)phenyl]-3,4-dihydropyrazol-5-yl]-6-chloro-4-phenyl-1H-quinolin-2-one] | > 100 µM | 11.4 µM
COc1ccc(C2CC(c3c(-c4ccccc4)c4cc(Cl)ccc4[nH]c3=O)=NN2C(=O)CCC(=O)O)cc1F (stereo not drawn) [d.18, 4-[5-(6-chloro-2-oxo-4-phenyl-1H-quinolin-3-yl)-3-(3-fluoro-4-methoxy-phenyl)-3,4-dihydropyrazol-2-yl]-4-oxo-butanoic acid] | > 100 µM | 73 µM
COc1ccc(-c2c(C3=NN(C(=O)CCC(=O)O)C(c4ccc(F)cc4)C3)c(=O)[nH]c3ccc(Cl)cc23)cc1 (stereo not drawn) [d.19, 4-[5-[6-chloro-4-(4-methoxyphenyl)-2-oxo-1H-quinolin-3-yl]-3-(4-fluorophenyl)-3,4-dihydropyrazol-2-yl]-4-oxo-butanoic acid] | > 100 µM | 76 µM
O=C(O)CCC(=O)N1N=C(c2c(-c3ccccc3)c3cc(Cl)ccc3[nH]c2=O)CC1c1ccco1 (stereo not drawn) [d.20, 4-[5-(6-chloro-2-oxo-4-phenyl-1H-quinolin-3-yl)-3-(2-furyl)-3,4-dihydropyrazol-2-yl]-4-oxo-butanoic acid] | > 100 µM | > 100 µM
CC(=O)N1N=C(c2c(-c3ccccc3)c3cc(Cl)ccc3[nH]c2=O)CC1c1ccco1 (stereo not drawn) [d.21, 3-[2-acetyl-3-(2-furyl)-3,4-dihydropyrazol-5-yl]-6-chloro-4-phenyl-1H-quinolin-2-one] | > 100 µM | 23 µM
CC(=O)N1N=C(c2c(-c3ccccc3)c3cc(Cl)ccc3[nH]c2=O)CC1c1ccc2c(ccn2C)c1 (stereo not drawn) [d.23, 3-[2-acetyl-3-(1-methylindol-5-yl)-3,4-dihydropyrazol-5-yl]-6-chloro-4-phenyl-1H-quinolin-2-one] | 18 µM | 4.8 µM
CCn1ccc2cc(C3CC(c4c(-c5ccccc5)c5cc(Cl)ccc5[nH]c4=O)=NN3C(=O)CCC(=O)O)ccc21 (stereo not drawn) [d.24, 4-[5-(6-chloro-2-oxo-4-phenyl-1H-quinolin-3-yl)-3-(1-ethylindol-5-yl)-3,4-dihydropyrazol-2-yl]-4-oxo-butanoic acid] | 10 µM | > 40 µM
Cn1cc2cc(C3CC(c4c(-c5ccccc5)c5cc(Cl)ccc5[nH]c4=O)=NN3C(=O)CCC(=O)O)ccc2n1 (stereo not drawn) [d.28, 4-[5-(6-chloro-2-oxo-4-phenyl-1H-quinolin-3-yl)-3-(2-methylindazol-5-yl)-3,4-dihydropyrazol-2-yl]-4-oxo-butanoic acid] | > 100 µM | > 100 µM
CCn1cc2cc(C3CC(c4c(-c5ccccc5)c5cc(Cl)ccc5[nH]c4=O)=NN3C(=O)CCC(=O)O)ccc2n1 (stereo not drawn) [d.29, 4-[5-(6-chloro-2-oxo-4-phenyl-1H-quinolin-3-yl)-3-(2-ethylindazol-5-yl)-3,4-dihydropyrazol-2-yl]-4-oxo-butanoic acid] | 28 µM | > 50 µM
CCn1cc2cc(C3CC(c4c(-c5ccccc5)c5cc(Cl)ccc5[nH]c4=O)=NN3C(C)=O)ccc2n1 (stereo not drawn) [d.30, 3-[2-acetyl-3-(2-ethylindazol-5-yl)-3,4-dihydropyrazol-5-yl]-6-chloro-4-phenyl-1H-quinolin-2-one] | > 100 µM | 16.8 µM
CCCn1ncc2cc(C3CC(c4c(-c5ccccc5)c5cc(Cl)ccc5[nH]c4=O)=NN3C(=O)CCC(=O)O)ccc21 (stereo not drawn) [d.33, 4-[5-(6-chloro-2-oxo-4-phenyl-1H-quinolin-3-yl)-3-(1-propylindazol-5-yl)-3,4-dihydropyrazol-2-yl]-4-oxo-butanoic acid] | > 100 µM | > 100 µM
CC(=O)N1N=C(c2c(-c3ccccc3)c3cc(Cl)ccc3[nH]c2=O)CC1c1ccc(-c2ccc(Cl)cc2)cc1 (stereo not drawn) [d.38, 3-[2-acetyl-3-[4-(4-chlorophenyl)phenyl]-3,4-dihydropyrazol-5-yl]-6-chloro-4-phenyl-1H-quinolin-2-one] | 45 µM | 18.8 µM

Now from value to molecule:

EC50 (BRC4/RAD51 interaction) | EC50 (BxPC-3 cells) | Structure (SMILES)
38 µM | 18 µM | CC(=O)N1N=C(c2c(-c3ccccc3)c3cc(Cl)ccc3[nH]c2=O)CC1c1ccc(Br)cc1 (stereo not drawn) [d.9, 3-[2-acetyl-3-(4-bromophenyl)-3,4-dihydropyrazol-5-yl]-6-chloro-4-phenyl-1H-quinolin-2-one]
> 100 µM | > 50 µM | COc1ccc(C2CC(c3c(-c4ccccc4)c4cc(Cl)ccc4[nH]c3=O)=NN2C(=O)CCC(=O)O)cc1 (stereo not drawn) [d.11, 4-[5-(6-chloro-2-oxo-4-phenyl-1H-quinolin-3-yl)-3-(4-methoxyphenyl)-3,4-dihydropyrazol-2-yl]-4-oxo-butanoic acid]
29 µM | 50 µM | O=C(O)CCC(=O)N1N=C(c2c(-c3ccccc3)c3cc(Cl)ccc3[nH]c2=O)CC1c1ccc(C(F)(F)F)cc1 (stereo not drawn) [d.14, 4-[5-(6-chloro-2-oxo-4-phenyl-1H-quinolin-3-yl)-3-[4-(trifluoromethyl)phenyl]-3,4-dihydropyrazol-2-yl]-4-oxo-butanoic acid]
> 100 µM | 71.2 µM | CC(C)(C)c1ccc(C2CC(c3c(-c4ccccc4)c4cc(Cl)ccc4[nH]c3=O)=NN2C(=O)CCC(=O)O)cc1 (stereo not drawn) [d.16, 4-[3-(4-tert-butylphenyl)-5-(6-chloro-2-oxo-4-phenyl-1H-quinolin-3-yl)-3,4-dihydropyrazol-2-yl]-4-oxo-butanoic acid]
15 µM | 15 µM | CC(=O)N1N=C(c2c(-c3ccccc3)c3cc(Cl)ccc3[nH]c2=O)CC1c1ccc(C(C)(C)C)cc1 (stereo not drawn) [d.17, 3-[2-acetyl-3-(4-tert-butylphenyl)-3,4-dihydropyrazol-5-yl]-6-chloro-4-phenyl-1H-quinolin-2-one]
13 µM | > 50 µM | Cn1ncc2cc(C3CC(c4c(-c5ccccc5)c5cc(Cl)ccc5[nH]c4=O)=NN3C(=O)CCC(=O)O)ccc21 (stereo not drawn) [d.26, 4-[5-(6-chloro-2-oxo-4-phenyl-1H-quinolin-3-yl)-3-(1-methylindazol-5-yl)-3,4-dihydropyrazol-2-yl]-4-oxo-butanoic acid]
9 µM | 21 µM | CC(=O)N1N=C(c2c(-c3ccccc3)c3cc(Cl)ccc3[nH]c2=O)CC1c1ccc2c(cnn2C)c1 (stereo not drawn) [d.27, 3-[2-acetyl-3-(1-methylindazol-5-yl)-3,4-dihydropyrazol-5-yl]-6-chloro-4-phenyl-1H-quinolin-2-one]
> 100 µM | > 50 µM | CCn1ncc2cc(C3CC(c4c(-c5ccccc5)c5cc(Cl)ccc5[nH]c4=O)=NN3C(=O)CCC(=O)O)ccc21 (stereo not drawn) [d.31, 4-[5-(6-chloro-2-oxo-4-phenyl-1H-quinolin-3-yl)-3-(1-ethylindazol-5-yl)-3,4-dihydropyrazol-2-yl]-4-oxo-butanoic acid]
> 100 µM | 62.6 µM | CCCn1cc2cc(C3CC(c4c(-c5ccccc5)c5cc(Cl)ccc5[nH]c4=O)=NN3C(=O)CCC(=O)O)ccc2n1 (stereo not drawn) [d.35, 4-[5-(6-chloro-2-oxo-4-phenyl-1H-quinolin-3-yl)-3-(2-propylindazol-5-yl)-3,4-dihydropyrazol-2-yl]-4-oxo-butanoic acid]
13 µM | 31 µM | O=C(O)CCC(=O)N1N=C(c2c(-c3ccccc3)c3cc(Cl)ccc3[nH]c2=O)CC1c1ccc(-c2ccc(F)cc2)cc1 (stereo not drawn) [d.36, 4-[5-(6-chloro-2-oxo-4-phenyl-1H-quinolin-3-yl)-3-[4-(4-fluorophenyl)phenyl]-3,4-dihydropyrazol-2-yl]-4-oxo-butanoic acid]
25 µM | 41.5 µM | O=C(O)CCC(=O)N1N=C(c2c(-c3ccccc3)c3cc(Cl)ccc3[nH]c2=O)CC1c1ccc(-c2ccc(Cl)cc2)cc1 (stereo not drawn) [d.37, 4-[5-(6-chloro-2-oxo-4-phenyl-1H-quinolin-3-yl)-3-[4-(4-chlorophenyl)phenyl]-3,4-dihydropyrazol-2-yl]-4-oxo-butanoic acid]
